Assay results as given in patent US20130011376A1, “Methods for Enhancing Natural Killer Cell Proliferation and Activity” (GAMIDA CELL LTD., priority 2009, published 2013).

Experiments:
[1] = system: unselected cord blood mononuclear cell population; assay: Lymphocyte subsets (FACS) in unselected cord blood mononuclear cell cultures; assay type: cell-based, human; conditions: three weeks
Procedure: 1. Total mononuclear cell fraction was cultured in culture bags (American Fluoroseal Co. Gaithersburg, Md., USA), T-Flasks or 24 well plates at a concentration of 0.5−2×10^6 cells/ml in MEMα comprising 10% FCS or CellGro SCGM (Cell Genix) comprising 5-10% Human Serum/LiforCell® FBS Replacement (Lifeblood Products) containing the following human recombinant cytokines:, interleukin-2 (IL-2) (5-50 ng/ml), interleukin-15 (IL-15), interleukin7 (IL7), interleukin 21 (IL21), FLT-3 or SCF or FLT3 and SCF (Perpo Tech, Inc., Rocky Hill, N.J., USA), with or without OKT-3 (10-50 ng/ml), with or without nicotinamide (0.5-10 mM), and incubated at 37° C. in a humidified atmosphere of 5% CO2 in air. When OKT-3 was used in the culture the cultures were centrifuged after 5-7 days and the cells were resuspended with the same medium excluding the OKT-3. All cultures are topped weekly or twice a week with the same volume of fresh medium containing the growth factors with or without nicotinamide. For counting, the cells were stained with trypan blue. At various time points, samples were taken to assay the relative fractions of NK cells, CD56+CD3−, CD56+CD3+, CD34+CD56+, CD56+CD16+ and/or CD56+ NKG2A cells. Cell morphology was determined on cytospin (Shandon, Pittsburgh, Pa., USA) prepared smears stained with May-Grunwald/Giemsa solutions.
(§1) The cells were washed with a PBS solution containing 1% BSA, and stained (at 4° C. for 30 min) with fluorescein isothiocyanate (FITC)- or phycoerythrin (PE)-conjugated antibodies or allophycocyanin (APC). The cells were then washed in the above buffer and analyzed using a FACScalibur® flow cytometer (Becton Dickinson, San Jose, Calif., USA). The cells were passed at a rate of up to 1000 cells/second, using a 488 nm or 661 nm argon laser beam as the light source for excitation. Emission of 10^4 cells was measured using logarithmic amplification, and analyzed using the CellQuest software (Becton Dickinson). Cells stained with FITC, PE and APC-conjugated isotype control antibodies were used to determine background fluorescence. […]

irradiated NOD/SCID mice = assay: In-vivo homing and engraftment of cultured human NK cells; conditions: 4 days post infusion
Procedure: NK cells were expanded with or without 2.5 mM or 5.0 mM nicotinamide, as described above. After 2-3 weeks in culture, similar numbers (15×10^6) of cells were infused into irradiated (350 Rad) NOD/SCID mice. Mice were sacrificed 4-days post infusion. Spleen, bone marrow and peripheral blood were analyzed for the homing and engraftment of human NK (CD45+CD56+) cells using […], in order to distinguish them from endogenous cells. Engraftment is expressed as the % of NK cells having the transplanted lineage (CD45+CD56+) using anti-human specific antibodies from the total number of mouse endogenous cells identified in the tissue.
Irradiated (350 Rad) NOD/SCID mice received 15×10^6 cells from human peripheral blood NK (T-cell depleted) cultures maintained for up to 3 weeks with (NAM 2.5 mM and NAM 5 mM) or without (NAM 0) nicotinamide. Upon sacrifice of the mice 4 days post infusion, samples of spleen, bone marrow and peripheral blood were evaluated by FACS for the presence of human NK cells (CD56+CD45+) using human specific Abs.

[2] = system: purified cord-blood derived CD56+ cells; assay: Inhibitory CD56+NKG2A cell fraction in cultured cord blood CD56+ cells (FACS); assay type: cell-based, human; conditions: 1, 2.5 and 5 mM nicotinamide, 3 weeks culture
Procedure: 2. Purified CD56+ or CD56+CD3− cells from total nuclear or mononuclear cells or from the fraction depleted from CD34+ or CD133+ cells were cultured in culture bags, T-Flasks or 24 well plates at a concentration of 1-100×10^4 cells/ml in MEMα/10% FCS or CellGro SCGM (Cell Genix)/5% Human Serum/LiforCell® FBS Replacement (Lifeblood Products) containing the following human recombinant cytokines:, interleukin-2 (IL-2) (5-50 ng/ml), interleukin-15 (IL-15), FLT-3 or SCF or FLT3 and SCF or IL-2 and IL-15 or IL-2 only (Perpo Tech, Inc., Rocky Hill, N.J., USA), with or without nicotinamide, and incubated at 37° C. in a humidified atmosphere of 5% CO2 in air. The cultures were topped up once or twice a week with the same volume of fresh medium containing growth factors with or without nicotinamide. […]
as §1, with “The cells were passed at a rate of up to 1000 cells/second, using a 488 nm or 661 nm argon laser beam as the light source for excitation.” left out

[3] = 0.5, 1, 2.5 and 5 mM nicotinamide

NC(=O)c1cccnc1 [nicotinamide]
proliferation in culture of CD56+/CD3- NK cells [1, 3]: dose-dependent nicotinamide-induced enhancement of proliferation | proliferation in culture of CD56+/CD45+ cells [1, 3]: dose-dependent nicotinamide-induced enhancement of proliferation | CD3+ CD56- T cell growth ([1]; 0.5 to 5 mM nicotinamide, dose-dependent): inhibition | localization and engraftment, higher vs lower nicotinamide concentration (irradiated NOD/SCID mice; 5 mM compared with 2.5 mM): stronger effect | localization and engraftment of human NK cells (CD56+CD45+) in spleen, bone marrow and peripheral blood (irradiated NOD/SCID mice; 15x10^6 cells cultured with 2.5 mM or 5 mM nicotinamide): increased localization and engraftment | prevalence of the inhibitory CD56+NKG2A cell fraction among NK cells [2]: significant and dose dependent reduction
